The values below come from patent US20250082763A1, “COMBINATION DRUG FOR TREATING TRIPLE-NEGATIVE BREAST CANCER” (HINOVA PHARMACEUTICALS INC., priority 2022, published 2025).

Type in all cases: cell-based
The subject of one assay is HCC1937. The experiment in a line: Antiproliferation, CellTiter-Glo, 5 days, HCC1937. Conditions: Homo sapiens, 120 h, HCC1937, AR− TNBC. The method, then: For MDA-MB-453, MFM-223, SUM159PT, MDA-MB-468, and HCC1937, 4,000, 3,000, 1,000, 3,000, and 3,000 cells were plated per well in 96-well microplates (Corning Inc), respectively. Cells were treated with serial dilutions of tested compounds with the maximum working concentration of 10 μM. Cell survival was measured 5 days later using a CellTiter-Glo luminescent cell viability assay kit (Promega Corporation). Luminescence was recorded by FLUOstar Omega microplate reader (BMG Labtech). Half maximal inhibitory concentration (IC50) was determined with GraphPad Prism using baseline correction (by normalizing to dimethyl sulfoxide (DMSO) control)

In assay [1] the test system is MDA-MB-453 cells. The experiment in a line: Combination with PI3K inhibitor Alpelisib, proliferation of MDA-MB-453 cells, Combination Index. The note with it: molar ratio to Alpelisib 1:27-9:1, 7 days. The method, then: Triple negative breast cancer MDA-MB-453 cells in logarithmic growth stage were inoculated into a 96-well plate at a concentration of 4×10^3 cells/well, and then incubated in an incubator at 37° C., 5% CO2, and saturated humidity for 24 h. To the negative control wells, were added RPMI 1640 cell culture medium containing 10% fetal bovine serum in the same volume as the drug. After cultured for 24 h, to the 96-well plate, were sequentially added AR PROTACs compounds 279, 281, 282, ARV-110, ARV-766 and PI3K inhibitor Alpelisib, respectively.
(§1) After addition of the drugs and co-incubation for 7 days, 10 μL of CCK-8 was added to each well, and then the plate was further cultured for 2 h. The absorbance value (OD) of each well was measured using a microplate reader at a wavelength of 450 nm. The survival rate was calculated using Prism software, the relative survival rate=(OD value of drug well/OD value of control well)×100%. Alternatively, 100 μL of medium was removed from each well, and then 50 μL of CTG was added. The plate was shaken in the dark for 2 min, allowed to stand for 10 min, and then measured using a microplate reader in Luminescence mode. Prism software was used to calculate the survival rate, the relative survival rate=(the RLU value of drug well/the RLU value of control well)×100%.

In assay [2] the test system is MDA-MB-453 cells. The experiment in a line: Inhibition of proliferation of MDA-MB-453 cells (CCK-8 or CTG, 7-10 days). Conditions: Homo sapiens, co-incubation 7-10 days, CCK-8 or CTG, read-out: IC50 values against MDA-MB-453 cells. The method, then: Triple negative breast cancer MDA-MB-453 cells in logarithmic growth stage were inoculated into a 96-well plate at a concentration of 4×10^3 cells/well, and then incubated in an incubator at 37° C., 5% CO2, and saturated humidity for 24 h or 48 h. To the negative control well, was added RPMI 1640 cell medium containing 10% fetal bovine serum in the same volume as the drug. After cultured for 24 h or 48 h, to the 96-well plate, were added AR PROTACs compounds 162, 177, 230, 259, 279, 281, 282, 325, 357, 400, ARV-110, ARV-766 and AR inhibitor HC-1119, respectively. The concentrations of compounds 177, 230, 259, 279, 281, 282, 325, 357, 400, ARV-110, and ARV-766 are 0 μM, 0.002 μM, 0.005 μM, 0.014 μM, 0.041 μM, 0.123 μM, 0.370 μM, 1.111 μM, 3.333 μM or 10 μM; while the concentrations of HC-1119 are 0 μM, 1.23 μM, 3.70 μM, 11.11 μM, 33.33 μM or 100 μM.
as §1, with “7-10” for “7”

For the next assay, the target named is T1, Androgen Receptor (Homo sapiens, UniProt P10275).
T1 construct: endogenous in cells
T1 sequence (P10275 1-920): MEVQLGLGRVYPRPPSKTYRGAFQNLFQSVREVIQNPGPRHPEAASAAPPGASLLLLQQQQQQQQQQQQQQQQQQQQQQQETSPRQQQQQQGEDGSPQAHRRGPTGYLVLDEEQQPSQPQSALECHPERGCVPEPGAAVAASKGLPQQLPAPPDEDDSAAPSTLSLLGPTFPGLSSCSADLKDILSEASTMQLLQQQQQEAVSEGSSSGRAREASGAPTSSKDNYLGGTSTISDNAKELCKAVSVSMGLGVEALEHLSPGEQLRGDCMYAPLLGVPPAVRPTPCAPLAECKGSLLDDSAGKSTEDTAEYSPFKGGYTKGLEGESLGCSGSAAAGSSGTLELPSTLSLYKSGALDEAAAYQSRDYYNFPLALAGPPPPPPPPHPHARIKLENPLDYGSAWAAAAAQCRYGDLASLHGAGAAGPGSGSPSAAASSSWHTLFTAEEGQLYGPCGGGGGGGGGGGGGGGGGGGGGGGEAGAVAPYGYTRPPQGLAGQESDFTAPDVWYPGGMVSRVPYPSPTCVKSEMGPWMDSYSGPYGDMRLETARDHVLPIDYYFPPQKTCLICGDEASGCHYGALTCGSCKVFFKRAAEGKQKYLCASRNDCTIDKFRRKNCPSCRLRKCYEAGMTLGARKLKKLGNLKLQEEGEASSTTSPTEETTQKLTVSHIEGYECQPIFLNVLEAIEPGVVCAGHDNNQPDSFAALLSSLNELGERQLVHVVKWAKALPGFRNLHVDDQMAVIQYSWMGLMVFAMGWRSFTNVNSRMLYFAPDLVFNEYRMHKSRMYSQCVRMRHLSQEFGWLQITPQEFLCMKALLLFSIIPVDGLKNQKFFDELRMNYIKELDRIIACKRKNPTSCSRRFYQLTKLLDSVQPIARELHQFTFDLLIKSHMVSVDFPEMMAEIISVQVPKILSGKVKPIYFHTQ
Description: AR degradation in AR positive TNBC cells, western blotting. The note with it: MDA-MB-453, SUM159PT and MFM-223 cells, 24 hours, up to 1 μM, western blot. The method, then:
Cells were plated in 12-well microplates and incubated at 37° C. overnight for attachment. Cells were then treated for 24 hours with serial dilutions of tested compounds with the maximum working concentration of 1 μM. Cell lysate were subjected to the western blotting assay against AR antibody.
Primary antibodies: Androgen Receptor (D6F11) XP® Rabbit mAb; Anti-GAPDH Rabbit mAb; Secondary antibody: Goat Anti-Rabbit IgG H&L (HRP)
On the technique in general: A western blot detects proteins with antibodies after separation by electrophoresis.

Structures are written as SMILES. A value given as a limit tells only on which side of the number the result lay.

One may read the IC50 as the concentration that gives 50% inhibition. As to `N#Cc1ccc(O[C@H]2CC[C@H](NC(=O)c3ccc(N4CCC(CN5CCN(c6cc7c(cc6F)C(=O)N(C6CCC(=O)NC6=O)C7=O)CC5)CC4)nn3)CC2)cc1Cl` (stereo partly shown) [ARV-110, reference compound], the IC50 with HCC1937 was above 10 µM; with MDA-MB-453 cells [2], at most 2 µM. Further, the “effect of the combination with Alpelisib on inhibiting proliferation (CI<1 = synergistic)” value in the assay on MDA-MB-453 cells [1] is recorded as “synergistic effect”.

For the compound `N#Cc1ccc(O[C@H]2CC[C@H](NC(=O)c3cnc(N4CCC(CN5CCC6(CC5)CN(c5ccc7c(c5)C(=O)N(C5CCC(=O)NC5=O)C7=O)C6)CC4)nn3)CC2)cc1Cl` (stereo partly shown) [Compound 279], the “AR degradation (words, FIG. 1)” value on Androgen Receptor is on record as “superior degradation activity”. The IC50 in the assay with HCC1937 is above 10 µM; in the assay with MDA-MB-453 cells [2], at most 2 µM. Moreover, in the assay on MDA-MB-453 cells [1], the “effect of the combination with Alpelisib on inhibiting proliferation (CI<1 = synergistic)” value is recorded as “synergistic effect”.
